Results as given in patent publication US8791132B2, “Compounds and methods for treatment of hypertension” (Medivation Technologies, Inc., priority 2011, dated 2014).
Like-named read-outs stand apart in the source and are kept apart here.

Experiments:
[1] = target: T1, human recombinant adrenergic α2A receptor (Homo sapiens, UniProt P08913); experiment: Radioligand binding, adrenergic α2A ([3H]MK-912); conditions: for Percentage inhibition of ligand binding, Adrenergic α2A / Percentage inhibition of ligand binding, Adrenergic α2A (0.1 μM): compound at 0.1 μM, 0.1 µM; for Percentage inhibition of ligand binding, Adrenergic α2A: repeat assays, each datapoint shown
T1 construct: expressed in transfected cells; host or cells: insect Sf9 cells
T1 sequence (P08913 1-465): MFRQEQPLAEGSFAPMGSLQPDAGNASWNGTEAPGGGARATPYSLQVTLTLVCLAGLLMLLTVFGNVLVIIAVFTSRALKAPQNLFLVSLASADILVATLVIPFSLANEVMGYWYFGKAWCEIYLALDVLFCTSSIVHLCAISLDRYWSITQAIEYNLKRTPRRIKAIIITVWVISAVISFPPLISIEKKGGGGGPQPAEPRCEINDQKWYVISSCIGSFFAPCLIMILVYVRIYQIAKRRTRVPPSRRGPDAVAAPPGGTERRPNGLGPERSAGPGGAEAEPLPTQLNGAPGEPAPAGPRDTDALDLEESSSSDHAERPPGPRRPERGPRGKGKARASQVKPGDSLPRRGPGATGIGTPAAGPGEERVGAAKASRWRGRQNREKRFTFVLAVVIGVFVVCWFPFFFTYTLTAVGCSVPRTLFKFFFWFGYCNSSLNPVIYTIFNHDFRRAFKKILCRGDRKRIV
Protocol: To evaluate in radioligand binding assays the activity of compounds of the invention, human recombinant adrenergic α2A receptor expressed in insect Sf9 cells (Uhlen, S. et al, J. Pharmacol. Exp. Ther. 271:1558, 1994) in a modified Tris-HCl buffer (50 mM Tris-HCl, pH 7.4, 12.5 mM MgCl2, 2 mM EDTA) was used. Compounds of invention were incubated with 1 nM [^3H]MK-912 for 60 min at 25° C. MK912 is (2S-trans)-1,3,4,5′,6,6′,7,12b-octahydro-1′,3′-dimethyl-spiro[2H-benzofuro[2,3-a]quinolizine-2,4′(1′H)-pyrimidin]-2′(3′H)-one hydrochloride. Non-specific binding was estimated in the presence of 10 μM WB-4101 (2-(2,6-Dimethoxyphenoxyethyl)aminomethyl-1,4-benzodioxane hydrochloride). Receptor proteins were filtered and washed, the filters were then counted to determine [^3H]MK-912 specifically bound. […] Compounds of the invention were tested in this biochemical assay and percent inhibition of specific binding was determined. Biochemical assay results are presented as the percent inhibition of specific binding in Table B1.

[2] = target: T2, rat adrenergic α1B receptor (Rattus norvegicus, UniProt P15823); experiment: Radioligand binding, adrenergic α1B ([3H]Prazosin)
T2 construct: rat adrenergic α1B receptor obtained from Wistar Rat liver; from tissue; host or cells: Wistar rat liver
T2 sequence (P15823 1-515): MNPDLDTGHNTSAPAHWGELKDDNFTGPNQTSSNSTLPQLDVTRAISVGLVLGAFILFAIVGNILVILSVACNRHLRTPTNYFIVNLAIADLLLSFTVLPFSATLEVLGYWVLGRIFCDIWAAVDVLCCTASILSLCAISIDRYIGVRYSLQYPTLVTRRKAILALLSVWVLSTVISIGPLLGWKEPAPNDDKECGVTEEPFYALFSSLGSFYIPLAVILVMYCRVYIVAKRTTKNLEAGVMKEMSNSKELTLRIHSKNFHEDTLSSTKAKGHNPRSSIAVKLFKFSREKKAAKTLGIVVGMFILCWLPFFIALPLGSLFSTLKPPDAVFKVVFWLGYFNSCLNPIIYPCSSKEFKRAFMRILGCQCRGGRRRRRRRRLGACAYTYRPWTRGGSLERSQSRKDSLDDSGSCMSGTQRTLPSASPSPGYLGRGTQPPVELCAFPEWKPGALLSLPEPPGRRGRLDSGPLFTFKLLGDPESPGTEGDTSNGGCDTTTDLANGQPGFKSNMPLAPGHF
Protocol: To evaluate in radioligand binding assays the activity of compounds of the invention, rat adrenergic α1B receptor obtained from Wistar Rat liver (Garcia-S'ainz, J. et al, Biochem. Biophys. Res. Commun. 186:760, 1992; Michel, A. et al, Br. J. Pharmacol. 98:883, 1989) in a modified Tris-HCl buffer (50 mM Tris-HCl buffer, pH 7.4, 0.5 mM EDTA) was used. Compounds of the invention were incubated with 0.25 nM [^3H]Prazosin for 60 min at 25° C. Non-specific binding was estimated in the presence of 10 μM phentolamine. Receptor proteins were filtered and washed, the filters were then counted to determine [^3H]Prazosin specifically bound. […] Compounds of the invention were tested in this biochemical assay and percent inhibition of specific binding was determined. Biochemical assay results are presented as the percent inhibition of specific binding in Table B1.

[3] = target: T3, human recombinant adrenergic α2B receptor (Homo sapiens, UniProt P18089); experiment: Radioligand binding, adrenergic α2B ([3H]Rauwolscine); conditions: for Percentage inhibition of ligand binding, Adrenergic α2B / Percentage inhibition of ligand binding, Adrenergic α2B (0.03 μM) / inhibition at 0.03 µM: [3H]Rauwolscine; for Percentage inhibition of ligand binding, Adrenergic α2B / Percentage inhibition of ligand binding, Adrenergic α2B (0.03 μM): 0.03 µM
T3 construct: expressed in transfected cells; host or cells: CHO-K1
T3 sequence (P18089 1-450): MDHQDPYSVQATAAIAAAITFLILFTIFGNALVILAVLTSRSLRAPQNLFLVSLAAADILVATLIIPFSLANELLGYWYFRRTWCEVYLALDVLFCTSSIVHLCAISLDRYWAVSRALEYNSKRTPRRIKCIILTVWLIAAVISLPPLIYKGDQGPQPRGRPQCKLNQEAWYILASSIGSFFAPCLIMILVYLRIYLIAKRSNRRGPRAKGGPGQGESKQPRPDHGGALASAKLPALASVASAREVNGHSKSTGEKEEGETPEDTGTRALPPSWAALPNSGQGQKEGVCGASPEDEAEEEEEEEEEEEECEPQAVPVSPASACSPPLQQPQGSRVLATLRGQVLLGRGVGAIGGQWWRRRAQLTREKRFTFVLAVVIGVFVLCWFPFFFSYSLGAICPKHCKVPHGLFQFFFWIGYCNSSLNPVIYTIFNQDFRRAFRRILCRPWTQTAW
Protocol: To evaluate in radioligand binding assays the activity of compounds of the invention, human recombinant adrenergic α2B receptor expressed in Chinese hamster ovary (CHO) K1 cells (Uhlen, S. et al, Eur. J. Pharmacol. 343(1):93, 1998) in a modified Tris-HCl buffer (50 mM Tris-HCl, pH 7.4, 12.5 mM MgCl2, 1 mM EDTA, 0.2% BSA) was used. Compounds of the invention were incubated with 2.5 nM [3H]Rauwolscine for 60 min at 25° C. Non-specific binding was estimated in the presence of 10 μM Prazosin. Receptor proteins were filtered and washed, the filters were then counted to determine [3H]Rauwolscine specifically bound. […] Compounds of the invention were tested in this biochemical assay and percent inhibition of specific binding was determined. Biochemical assay results are presented as the percent inhibition of specific binding in Table B1.

[4] = compound at 0.1 μM, [3H]Prazosin, repeat assays, each datapoint shown, 0.1 µM
[5] = compound at 0.03 μM, repeat assays, each datapoint shown
[6] = read-out: Percentage inhibition of ligand binding, Adrenergic α1B (0.1 μM), compound at 0.1 μM, [3H]Prazosin, repeat datapoints each shown
[7] = compound at 0.03 μM, repeat datapoints each shown
[8] = [3H]MK-912, repeat datapoints each shown
[9] = compound at 0.1 μM, [3H]Prazosin, repeat datapoints each shown, 0.1 µM
[10] = read-out: Percentage inhibition of ligand binding, Adrenergic α2B (0.03 μM), compound at 0.03 μM, repeat datapoints each shown
[11] = compound at 0.1 μM, [3H]Prazosin, repeat assays, each datapoint shown, read-out: Percentage inhibition of ligand binding, Adrenergic α1B

Cc1ccc2c(c1)c1c(n2CC(O)c2ccc(C(=O)N(C)C)cc2)CCN(C)C1 (single isomer, unassigned) [52a]
Percentage inhibition of ligand binding, Adrenergic α2A ([1]; [3H]MK-912): 5% | Percentage inhibition of ligand binding, Adrenergic α1B [2, 4]: 9%

Cc1ccc2c(c1)c1c(n2CC(OC(=O)C(N)C(C)C)c2ccncc2)CCN(C)C1 (single isomer, unassigned) [25a]
Percentage inhibition of ligand binding, Adrenergic α2B [3, 5]: 54% | Percentage inhibition of ligand binding, Adrenergic α1B [2, 4]: 4%

Cc1ccc2c(c1)c1c(n2CC(c2ccncc2)N(C)C)CCN(C)C1 (stereo not shown) [150b]
inhibition at 0.1 µM ([1]; read-out: Percentage inhibition of ligand binding, Adrenergic α2A (0.1 μM), compound at 0.1 μM, [3H]MK-912, repeat datapoints each shown): 5% | inhibition at 0.1 µM [2, 6]: 7%

Cc1ccc2c(c1)c1c(n2CC(O)c2ccc(C#N)cc2)CCN(C)C1 (single isomer, unassigned) [142a]
Percentage inhibition of ligand binding, Adrenergic α2B (0.03 μM) [3, 7]: 71% | inhibition at 0.1 µM [2, 6]: 68%

Cc1ccc2c(c1)c1c(n2C(C)C(O)c2ccncc2)CCN(C)C1 (stereo not shown) [II-98a]
inhibition at 0.1 µM ([1]; 0.1 μM compound, read-out: Percentage inhibition of ligand binding, Adrenergic α2A): 12% | Percentage inhibition of ligand binding, Adrenergic α1B ([2]; 0.1 μM compound): 33%

Cc1ccc2c(c1)c1c(n2CC(O)c2cn[nH]c2)CCN(C)C1 (single isomer, unassigned) [II-106b]
Percentage inhibition of ligand binding, Adrenergic α2A (0.1 μM) [1, 8]: 8% | Percentage inhibition of ligand binding, Adrenergic α1B (0.1 μM) [2, 9]: 31%

Cc1ccc2c(c1)c1c(n2CC(O)c2cn[nH]c2)CCN(C)C1 (single isomer, unassigned) [II-106a]
inhibition at 0.1 µM [2, 6]: 25%

CN1CCc2c(c3cc(Cl)ccc3n2CC(C)(O)c2ccc(C(F)(F)F)nc2)C1 (single isomer, unassigned) [143a]
Percentage inhibition of ligand binding, Adrenergic α1B (0.1 μM) [2, 9]: 43%

Cc1ccc2c(c1)c1c(n2CC(C)(O)c2cccnc2)CC[N+](C)([O-])C1 (stereo not shown) [II-105, 1-(2,8-dimethyl-2-oxy-1,2,3,4-tetrahydro-pyrido[4,3-b]indol-5-yl)-2-pyridin-3-yl-propan-2-ol]
inhibition at 0.1 µM ([3]; 0.1 μM compound, read-out: Percentage inhibition of ligand binding, Adrenergic α2B): 27% | Ki ([3]; read-out: Ki α2B): 152 nM | inhibition at 0.1 µM ([2]; 0.1 μM compound, read-out: Percentage inhibition of ligand binding, Adrenergic α1B): 5%

Cc1cnc2c(c1)c1c(n2CC(N)c2ccc(C#N)cc2)CCN(C)C1 (single isomer, unassigned) [159a]
inhibition at 0.03 µM [3, 10]: 37% | Percentage inhibition of ligand binding, Adrenergic α1B (0.1 μM) [2, 9]: −2%

CN1CCc2c(c3cc(Cl)ccc3n2CC(O)c2cccnc2)C1 (stereo not shown) [compound 7]
inhibition at 0.03 µM ([3]; compound at 0.03 μM, repeat assays, each datapoint shown, read-out: Percentage inhibition of ligand binding, Adrenergic α2B): 59% | inhibition at 0.1 µM [2, 11]: 35%

Cc1ccc2c(c1)c1c(n2CC(O)c2ccncc2)C(C)N2CCC1C2 (stereo not shown) [compound 38]
inhibition at 0.1 µM [2, 11]: 20%

Cc1ccc2c(c1)c1c(n2CC(O)c2ccc(C(=O)N(C)C)cc2)CCN(C)C1 (single isomer, unassigned) [52b]
Percentage inhibition of ligand binding, Adrenergic α2A ([1]; [3H]MK-912): 29% | Percentage inhibition of ligand binding, Adrenergic α1B [2, 4]: 73%

Cc1ccc2c(c1)c1c(n2CC(C)(O)c2cccnc2)CCN(C)C1C (single isomer, unassigned) [II-152d]
Percentage inhibition of ligand binding, Adrenergic α2A (0.1 μM) [1, 8]: 8% | Percentage inhibition of ligand binding, Adrenergic α1B (0.1 μM) [2, 9]: 5%

Cc1ccc(CCn2c3c(c4cc(Cl)cnc42)C2CCCN2CC3)cn1 (single isomer, unassigned) [137a]
Percentage inhibition of ligand binding, Adrenergic α2B (0.03 μM) [3, 7]: 104% | Percentage inhibition of ligand binding, Adrenergic α1B (0.1 μM) [2, 9]: 94%

Cc1ccc2c(c1)c1c(n2CC(c2ccncc2)N2CCCC2)CCN(C)C1 (single isomer, unassigned) [152b]
Percentage inhibition of ligand binding, Adrenergic α1B (0.1 μM) [2, 9]: 7%

Cc1ccc2c(c1)c1c(n2CC(OC(=O)C(N)C(C)C)c2ccncc2)CCN(C)C1 (single isomer, unassigned) [25b]
Percentage inhibition of ligand binding, Adrenergic α2B [3, 5]: 75% | Percentage inhibition of ligand binding, Adrenergic α1B [2, 4]: 12%

Cc1ccc2c(c1)c1c(n2CC(O)c2ccncc2)CCN2CCCC12 (stereo not shown) [129b]
Percentage inhibition of ligand binding, Adrenergic α1B (0.1 μM) [2, 9]: 69%

Cc1ccc2c(c1)c1c(n2CC(C)(O)c2ccc(C)nc2)CN(C)CC1 (stereo not shown) [196b]
inhibition at 0.03 µM [3, 10]: -2% | inhibition at 0.1 µM [2, 6]: 37%

CN1CCc2c(n(CC(O)c3ccncc3)c3ccc(Cl)cc23)C1 (stereo not shown) [compound 41]
inhibition at 0.1 µM [2, 11]: 57%

Cc1ccc2c(c1)c1c(n2CC(O)c2ccc(F)cc2)CCN(C)C1 (stereo not shown) [30a]
Percentage inhibition of ligand binding, Adrenergic α1B [2, 4]: 57%

Cc1ccc2c(c1)c1c(n2CC(N=[N+]=[N-])c2ccncc2)CCN(C)C1 (racemic) [V-1a, 5-(2-azido-2-(pyridin-4-yl)ethyl)-2,3,4,5-tetrahydro-2,8-dimethyl-1H-pyrido[4,3-b]indole]
Percentage inhibition of ligand binding, Adrenergic α1B (0.1 μM) [2, 9]: 20%
